# Measurements as given in patent publication US20260378560A1, “APPROACHES TO DESIGNING AND PERFORMING COMPRESSED BIOLOGICAL EXPERIMENTS AND SYSTEMS FOR IMPLEMENTING THE SAME” (EXVIVO LABS INC., priority 2023, published 2026).
# Key:
# MOLT-4 = assay: Cell viability (CellTiter Glo), library of cancer drugs, individual or sample compression with randomized (alphabetical) pools, MOLT-4; type: cell-based; conditions: for DRS: MOLT-4, None (measured individually); for DRS from deconvolution: MOLT-4, Samples, 7 Pick 3 randomized (alphabetical) sample pools
# Summary of the method: (§1)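 Cells cultured with each drug individually at 1 nM–10 μM; viability by ATP luminescence (CellTiter Glo) to build dose-response curves and DRS. Samples read singly or pooled alphabetically (each drug in 3 of 7 pools), with pooled DRS recovered by additivity-based SUM deconvolution.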
# REH [1] = assay: Cell viability (CellTiter Glo), library of cancer drugs, individual or sample compression with randomized (alphabetical) pools, REH; type: cell-based; conditions: REH; for DRS: None (measured individually); for DRS from deconvolution: Samples, 7 Pick 3 randomized (alphabetical) sample pools
# Summary of the method: as §1
# REH [2] = assay: ATP-based luminescence cell viability (CellTiter Glo), drug response score, REH; design: scale not given here; conditions: for DRS, REH, None: no compression (individual drug); for DRS from deconvolution: Target compression
# From the text: As part of a screen, a drug could be screened at different concentrations ranging from a lowest concentration to a highest concentration. In such a scenario, multiple data structures may be obtained by the screening platform 210. […] With these multiple data structures, the analysis module 218 can generate a dose-response curve that describes the magnitude of the response of the biological target, as a function of exposure to different concentrations of the drug. Further, the analysis module 218 can calculate a metric that is indicative of the response of the biological target. In the event that the biological target is one of multiple biological targets that are introduced to the pools of drugs, the metric can be used by the screening platform 210 to better understand the relative magnitude of responses. One example of a metric is drug-response score (“DRS”). DRS can be calculated as a continuous function of multiple parameters of the non-linear dose-response curve, including the slope at the half-maximal effective concentration (also called “EC50”) and the top and bottom asymptotes of the dose-response curve. DRS can be calculated as follows: […]
# where y is a continuous function of the variable dose x, a is the maximal response (i.e., the top asymptote of the curve), b is the slope of the curve, c is the IC50 (i.e., half-maximal inhibitory concentration), and d is the minimal response (i.e., the bottom asymptote of the curve). Other examples of metrics include those output by sigmoidal and Hill slide functions that, like DRS, incorporate multiple aspects of the dose-response curve into a continuous function.
# Total cell viability was measured for each cancer cell line using an Adenosine TriPhosphate (“ATP”) assay, and more specifically an ATP-based luminescence assay (i.e., CellTiter Glo). Each cancer drug was screened at multiple concentrations ranging from one nanomolar (nM) to ten micromolar (UM) in order to generate a dose-response curve and calculate a drug response score (“DRS”) for each cancer cell line. The DRS was calculated as a continuous function of multiple parameters of the non-linear dose-response curve, including the slope at the half-maximal effective concentration (also called “EC50”) and the top and bottom asymptotes of the dose-response curve. […] After total cell viability was measured and DRS was calculated, the DRS of each cancer cell line in the pool was deconvolved for each cancer drug.
# DRS for these anchor cell lines are bolded and italicized. Anchors can be identified based on frequency of the cell lines in pools with high DRS versus low DRS. At a high level, an anchor is predicted to be the cell line with the lowest individual DRS. In order to deconvolute individual cell line DRS values from pool DRS values, the anchor can start with an assumed DRS value of zero. Each pool can then be expressed as a polynomial of variables (cell lines in the pool) and constants (DRS value of the pool). The DRS value of each cell line can then be solved for using the anchor value and overlapping polynomial expressions. When multiple values are calculated for the final target solved from the polynomials, then the anchor has a non-zero value that can be determined based on the difference in the calculated value of the final target.
# Each pool represented a co-culture of three cell lines (“Target Compression”).
Structure (SMILES),DRS (MOLT-4),DRS from deconvolution (MOLT-4),DRS (REH [1]),DRS from deconvolution (REH [1]),"DRS, REH, None (REH [2])",DRS from deconvolution (REH [2]; 5 Pick 3 pools),DRS from deconvolution (REH [2]; 6 Pick 3 pools),DRS from deconvolution (REH [2]; 7 Pick 3 pools)
C=CC(=O)Nc1cc(Nc2nccc(-c3cn(C)c4ccccc34)n2)c(OC)cc1N(C)CCN(C)C [Osimertinib],1.84,0.99,5.84,6.12,2.01,–,–,–
COc1cc2ncnc(Nc3ccc(F)c(Cl)c3)c2cc1OCCCN1CCOCC1 [Gefitinib],2.96,3.02,5.66,5.59,3.15,–,–,–
COc1c(OCCCN2CCOCC2)ccc2c1N=C(NC(=O)c1cnc(N)nc1)N1CCN=C21 [Copanlisib],9.01,9.65,12.67,12.51,–,12.96,13.28,12.09
N#Cc1ccnc(N2C(=O)CC[C@H]2C(=O)N(c2cncc(F)c2)[C@H](C(=O)NC2CC(F)(F)C2)c2ccccc2Cl)c1 [Ivosidenib],0.11,0.00,0.37,0.00,–,0.53,0.58,0.49
Cc1[nH]c2ccccc2c1CCNCc1ccc(/C=C/C(=O)NO)cc1 [Panobinostat],15.70,16.56,13.34,13.96,–,12.12,12.62,12.90
CC1(C)CCC(CN2CCN(c3ccc(C(=O)NS(=O)(=O)c4ccc(NCC5CCOCC5)c([N+](=O)[O-])c4)c(Oc4cnc5[nH]ccc5c4)c3)CC2)=C(c2ccc(Cl)cc2)C1 [Venetoclax],2.74,2.89,3.91,4.05,–,1.56,3.18,1.88
